Measured values from ChEMBL document CHEMBL1155158, “Early bactericidal activity of high-dose rifampin in patients with pulmonary tuberculosis evidenced by positive sputum smears” (Antimicrob Agents Chemother, 2007).

What was measured:
[1] = clinical; conditions: human, in vivo, po, 20 mg/kg
Description: Cmax in Mycobacterium tuberculosis infected patient at 20 mg/kg, po administered daily for 5 days

[2] = Tmax in Mycobacterium tuberculosis infected patient at 20 mg/kg, po administered daily for 5 days; assay type: ADME, organism-based; parameters: dose 20 mg/kg, route oral; conditions: human, in vivo
[3] = clinical; conditions: human, in vivo, 6 mg/kg
Description: Cmax in Mycobacterium tuberculosis infected patient at 6 mg/kg

[4] = test system: Homo sapiens; assay: AUC (0 to infinity) in Mycobacterium tuberculosis infected patient at 6 mg/kg; assay type: ADME, organism-based, Plasma; parameters: time infinity, dose 6 mg/kg; conditions: in vivo
[5] = Tmax in Mycobacterium tuberculosis infected patient at 6 mg/kg; assay type: ADME, organism-based; parameters: dose 6 mg/kg; conditions: human, in vivo
[6] = test system: Homo sapiens; assay: AUC (0 to infinity) in Mycobacterium tuberculosis infected patient at 3 mg/kg; assay type: ADME, organism-based, Plasma; parameters: time infinity, dose 3 mg/kg; conditions: in vivo
[7] = test system: Mycobacterium tuberculosis; assay: Antimycobacterial activity against Mycobacterium tuberculosis infected patient assessed as sputum bacterial count at 600 mg, po after 2 days; assay type: functional
[8] = Tmax in Mycobacterium tuberculosis infected patient at 3 mg/kg; assay type: ADME, organism-based; parameters: dose 3 mg/kg; conditions: human, in vivo
[9] = clinical; conditions: human, in vivo, 3 mg/kg
Description: Cmax in Mycobacterium tuberculosis infected patient at 3 mg/kg

[10] = test system: Mycobacterium tuberculosis; assay: Antimycobacterial activity against Mycobacterium tuberculosis infected patient assessed as sputum bacterial count at 20 mg/kg, po administered daily for 5 days; assay type: functional
[11] = test system: Mycobacterium tuberculosis; assay: Antimycobacterial activity against Mycobacterium tuberculosis infected patient assessed as sputum bacterial count at 20 mg/kg, po administered daily for 2 days; assay type: functional
[12] = Tmax in Mycobacterium tuberculosis infected patient at 12 mg/kg; assay type: ADME, organism-based; parameters: dose 12 mg/kg; conditions: human, in vivo
[13] = clinical; conditions: human, in vivo, 12 mg/kg
Description: Cmax in Mycobacterium tuberculosis infected patient at 12 mg/kg

With CO[C@H]1/C=C/O[C@@]2(C)Oc3c(C)c(O)c4c(O)c(c(/C=N/N5CCN(C)CC5)c(O)c4c3C2=O)NC(=O)/C(C)=C\C=C\[C@H](C)[C@H](O)[C@@H](C)[C@@H](O)[C@@H](C)[C@H](OC(C)=O)[C@@H]1C [RIFAMPIN] the Cmax at 120 h [1] was 14000 ng/mL, the Tmax [2] was 3.27 h and the Cmax [3] was 3190 ng/mL. It also gave an AUC [4] of 24.5 µg/mL, a Tmax [5] of 3.67 h and an AUC [6] of 13.1 µg/mL. The log10CFU/ml [7] was 0.221, the Tmax [8] was 3.12 h and the Cmax [9] was 2530 ng/mL. The log10CFU/ml [10] was 0.3, the log10CFU/ml [11] was 0.44 and the Tmax [12] was 2.5 h. For the same molecule, the Cmax [13] was 13000 ng/mL.
